Assay results from PubChem BioAssay (NCI).
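Protocol summary: plate cells (96-well), add compound at 5 concentrations, incubate 48 h, interpolate endpoints linearly. Definition used: TGI = concentration required for complete inhibition of growth.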

Assays:
Assay in all cases: growth of human tumour cells (NCI), 48 h
[1] = test system: 786-0 renal
[2] = test system: A498 renal
[3] = test system: A549 NSCLC
[4] = test system: ACHN renal
[5] = test system: BT-549 breast
[6] = test system: CAKI-1 renal
[7] = test system: CCRF-CEM leukemia
[8] = test system: COLO 205 colon
[9] = test system: EKVX NSCLC
[10] = test system: HCC-2998 colon
[11] = test system: HCT-116 colon
[12] = test system: HCT-15 colon
[13] = test system: HOP-62 NSCLC
[14] = test system: HOP-92 NSCLC
[15] = test system: HS 578T breast
[16] = test system: HT29 colon
[17] = test system: IGROV1 ovarian
[18] = test system: K-562 leukemia
[19] = test system: KM12 colon
[20] = test system: LOX IMVI melanoma
[21] = test system: M14 melanoma
[22] = test system: MALME-3M melanoma
[23] = test system: MCF7 breast
[24] = test system: MDA-MB-231 breast
[25] = test system: MDA-MB-435
[26] = test system: MDA-N
[27] = test system: MOLT-4 leukemia
[28] = test system: NCI-H226 lung
[29] = test system: NCI-H23 lung
[30] = test system: NCI-H460 lung
[31] = test system: NCI-H522 lung
[32] = test system: NCI/ADR-RES ovarian
[33] = test system: OVCAR-3 ovarian
[34] = test system: OVCAR-4 ovarian
[35] = test system: OVCAR-5 ovarian
[36] = test system: OVCAR-8 ovarian
[37] = test system: PC-3 prostate
[38] = test system: RPMI-8226 leukemia
[39] = test system: RXF 393 renal
[40] = test system: SF-268 CNS
[41] = test system: SF-295 CNS
[42] = test system: SK-MEL-2 melanoma
[43] = test system: SK-MEL-5 melanoma
[44] = test system: SK-OV-3 ovarian
[45] = test system: SN12C renal
[46] = test system: SNB-19 CNS
[47] = test system: SNB-75 CNS
[48] = test system: SR leukemia
[49] = test system: SW-620 colon
[50] = test system: T-47D breast
[51] = test system: TK-10 renal
[52] = test system: U251 CNS
[53] = test system: UACC-257 melanoma
[54] = test system: UACC-62 melanoma
[55] = test system: UO-31 renal
[56] = test system: DU-145 prostate
[57] = test system: SK-MEL-28 melanoma
[58] = test system: HL-60(TB) leukemia
[59] = test system: SF-539 CNS

In the case of O=c1c(C=Nc2ccc([N+](=O)[O-])cc2)c(O)n(-c2ccccc2)c(=O)n1-c1ccccc1, the TGI [1] is reported as over 100 µM, the TGI [2] is reported as over 100 µM and the TGI [3] is reported as over 100 µM. For the same molecule, the TGI [4] was over 100 µM, the TGI [5] was over 100 µM and the TGI [6] was over 100 µM. It also gave a TGI [7] of over 100 µM, a TGI [8] of over 100 µM and a TGI [9] of over 100 µM. The TGI [10] was over 100 µM, the TGI [11] was over 100 µM and the TGI [12] was over 100 µM. The TGI [13] was over 100 µM, the TGI [14] was over 100 µM and the TGI [15] was over 100 µM. The TGI [16] was over 100 µM, the TGI [17] was over 100 µM and the TGI [18] was over 100 µM. The TGI [19] was over 100 µM, the TGI [20] was over 100 µM and the TGI [21] was over 100 µM. The TGI [22] was over 100 µM, the TGI [23] was over 100 µM and the TGI [24] was over 100 µM. It also gave a TGI [25] of over 100 µM, a TGI [26] of over 100 µM and a TGI [27] of over 100 µM. The TGI [28] was over 100 µM, the TGI [29] was over 100 µM and the TGI [30] was over 100 µM. For the same molecule, the TGI [31] was over 100 µM, the TGI [32] was over 100 µM and the TGI [33] was over 100 µM. It also gave a TGI [34] of over 100 µM, a TGI [35] of over 100 µM and a TGI [36] of over 100 µM. The TGI [37] was over 100 µM, the TGI [38] was over 100 µM and the TGI [39] was over 100 µM. For the same molecule, the TGI [40] was over 100 µM, the TGI [41] was over 100 µM and the TGI [42] was over 100 µM. For the same molecule, the TGI [43] was over 100 µM, the TGI [44] was over 100 µM and the TGI [45] was over 100 µM. It also gave a TGI [46] of over 100 µM, a TGI [47] of over 100 µM and a TGI [48] of over 100 µM. For the same molecule, the TGI [49] was over 100 µM, the TGI [50] was over 100 µM and the TGI [51] was over 100 µM. For the same molecule, the TGI [52] was over 100 µM, the TGI [53] was over 100 µM and the TGI [54] was over 100 µM. The TGI [55] was over 100 µM.
In the case of Cc1cn(CC2=NCC(C)(C)N2)c(=O)[nH]c1=O, the TGI [1] is reported as over 100 µM, the TGI [2] is reported as over 100 µM and the TGI [3] is reported as over 100 µM. The TGI [4] was over 100 µM, the TGI [5] was over 100 µM and the TGI [7] was over 100 µM. For the same molecule, the TGI [8] was over 100 µM, the TGI [56] was over 100 µM and the TGI [9] was over 100 µM. For the same molecule, the TGI [10] was over 100 µM, the TGI [11] was over 100 µM and the TGI [12] was over 100 µM. It also gave a TGI [13] of over 100 µM, a TGI [14] of over 100 µM and a TGI [15] of over 100 µM. The TGI [16] was over 100 µM, the TGI [17] was over 100 µM and the TGI [18] was over 100 µM. For the same molecule, the TGI [20] was over 100 µM, the TGI [21] was over 100 µM and the TGI [22] was over 100 µM. For the same molecule, the TGI [23] was over 100 µM, the TGI [24] was over 100 µM and the TGI [26] was over 100 µM. It also gave a TGI [27] of over 100 µM, a TGI [28] of over 100 µM and a TGI [29] of over 100 µM. It also gave a TGI [30] of over 100 µM, a TGI [31] of over 100 µM and a TGI [32] of over 100 µM. For the same molecule, the TGI [35] was over 100 µM, the TGI [36] was over 100 µM and the TGI [37] was over 100 µM. For the same molecule, the TGI [38] was over 100 µM, the TGI [39] was over 100 µM and the TGI [40] was over 100 µM. It also gave a TGI [41] of over 100 µM, a TGI [42] of over 100 µM and a TGI [57] of over 100 µM. It also gave a TGI [43] of over 100 µM, a TGI [44] of over 100 µM and a TGI [45] of over 100 µM. The TGI [46] was over 100 µM, the TGI [47] was over 100 µM and the TGI [48] was over 100 µM. It also gave a TGI [49] of over 100 µM, a TGI [50] of over 100 µM and a TGI [51] of over 100 µM. It also gave a TGI [52] of over 100 µM, a TGI [53] of over 100 µM and a TGI [54] of over 100 µM. The TGI [55] was over 100 µM.
COC(=O)/C=C(/C(=O)OC)c1c(C)c(C)c2c(C)cc(C)cc(C)c1-2 gave a TGI [1] of over 100 µM, a TGI [2] of over 100 µM and a TGI [3] of over 100 µM. The TGI [4] was over 100 µM, the TGI [5] was over 100 µM and the TGI [6] was over 100 µM. It also gave a TGI [7] of over 100 µM, a TGI [8] of over 100 µM and a TGI [56] of over 100 µM. For the same molecule, the TGI [9] was over 100 µM, the TGI [10] was over 100 µM and the TGI [11] was over 100 µM. The TGI [12] was over 100 µM, the TGI [58] was over 100 µM and the TGI [13] was 81 µM. It also gave a TGI [14] of over 100 µM, a TGI [15] of 62.2 µM and a TGI [16] of 34.3 µM. It also gave a TGI [17] of over 100 µM, a TGI [18] of over 100 µM and a TGI [19] of over 100 µM. It also gave a TGI [20] of over 100 µM, a TGI [21] of 37.3 µM and a TGI [22] of over 100 µM. It also gave a TGI [23] of over 100 µM, a TGI [24] of over 100 µM and a TGI [25] of over 100 µM. It also gave a TGI [26] of 4.83 µM, a TGI [27] of over 100 µM and a TGI [28] of 58.9 µM. It also gave a TGI [29] of over 100 µM, a TGI [30] of over 100 µM and a TGI [31] of 52.3 µM. The TGI [32] was over 100 µM, the TGI [33] was over 100 µM and the TGI [34] was over 100 µM. It also gave a TGI [35] of over 100 µM, a TGI [36] of over 100 µM and a TGI [37] of over 100 µM. For the same molecule, the TGI [38] was over 100 µM, the TGI [39] was over 100 µM and the TGI [40] was over 100 µM. It also gave a TGI [41] of over 100 µM, a TGI [59] of over 100 µM and a TGI [42] of over 100 µM. The TGI [57] was over 100 µM, the TGI [43] was over 100 µM and the TGI [44] was 76.8 µM. For the same molecule, the TGI [45] was over 100 µM, the TGI [46] was over 100 µM and the TGI [48] was over 100 µM. For the same molecule, the TGI [49] was over 100 µM, the TGI [50] was over 100 µM and the TGI [51] was over 100 µM. For the same molecule, the TGI [52] was over 100 µM, the TGI [53] was over 100 µM and the TGI [54] was over 100 µM. The TGI [55] was over 100 µM.
Work on Fc1ccc(N=NN2CCCC2)cc1 yielded a TGI [1] of over 100 µM, a TGI [2] of over 100 µM and a TGI [3] of over 100 µM. The TGI [4] was over 100 µM, the TGI [5] was over 100 µM and the TGI [6] was over 100 µM. It also gave a TGI [7] of over 100 µM, a TGI [8] of over 100 µM and a TGI [56] of over 100 µM. The TGI [9] was over 100 µM, the TGI [10] was over 100 µM and the TGI [11] was over 100 µM. It also gave a TGI [12] of over 100 µM, a TGI [58] of over 100 µM and a TGI [13] of over 100 µM. It also gave a TGI [14] of over 100 µM, a TGI [15] of over 100 µM and a TGI [16] of over 100 µM. The TGI [17] was over 100 µM, the TGI [18] was over 100 µM and the TGI [19] was over 100 µM. It also gave a TGI [20] of over 100 µM, a TGI [21] of over 100 µM and a TGI [22] of over 100 µM. For the same molecule, the TGI [23] was over 100 µM, the TGI [24] was over 100 µM and the TGI [25] was over 100 µM. For the same molecule, the TGI [26] was over 100 µM, the TGI [27] was over 100 µM and the TGI [28] was over 100 µM. It also gave a TGI [29] of over 100 µM, a TGI [30] of over 100 µM and a TGI [31] of over 100 µM. It also gave a TGI [33] of over 100 µM, a TGI [34] of over 100 µM and a TGI [35] of over 100 µM. It also gave a TGI [38] of over 100 µM, a TGI [39] of over 100 µM and a TGI [40] of over 100 µM. For the same molecule, the TGI [41] was over 100 µM, the TGI [59] was over 100 µM and the TGI [42] was over 100 µM. For the same molecule, the TGI [57] was over 100 µM, the TGI [43] was over 100 µM and the TGI [44] was over 100 µM. It also gave a TGI [45] of over 100 µM, a TGI [46] of over 100 µM and a TGI [48] of over 100 µM. It also gave a TGI [49] of over 100 µM, a TGI [50] of over 100 µM and a TGI [51] of over 100 µM. It also gave a TGI [52] of over 100 µM, a TGI [53] of over 100 µM and a TGI [54] of over 100 µM. It also gave a TGI [55] of over 100 µM.
